The text below walks through data of US6592821B1, “Focusing of microparticles in microfluidic systems” (Caliper Technologies Corp., priority 1999, dated 2003).

Common to all, as to type: cell-based
The subject of one assay is HL-60 cells. Put plainly: TUNEL assay for apoptosis in microfluidic device. The conditions noted are these: HL-60 cells treated for 6 hours; FIG. 8, untreated control FIG. 9.
Assay [1] relates to U937 cells. The experiment in a line: TUNEL assay for apoptosis in microfluidic device. The note with it: U937 cells treated to induce apoptosis; FIG. 5, untreated control FIG. 4. How it is done: A TUNEL assay (TdT (Terminal deoxynucleotidyl transferase)-mediated dUTP Nick End Labeling) was used to measure cellular apoptosis in accordance with the above-described methods and systems. In a TUNEL Assay, damaged DNA is labeled with fluorescinated nucleotides. Terminal deoxynucleotidyl transferase (TdT) binds to exposed 3′ ends of DNA fragments generated in response to apoptotic signals and catalyzes the addition of fluorescein-labeled deoxynucleotides. U937 cells were treated with Campthotecin to induce apoptosis. The cells were then harvested and fixed with 4% formaldehyde and stored in 80% ethanol at +4° C. until labeling was performed.
The cells were rehydrated in TBS buffer. They were then treated with 20 μg/ml of proteinase K for 5 minutes and resuspended in equilibration buffer. The cells were incubated in a working TdT labeling reaction mixture from Oncogene Research Products containing TdtT enzyme and FragEL TdT labeling reaction mix. […]
After washing the cells in TBS, they were resuspended in Hanks' Balanced Salt Solution with 10% OPTIPREP at 5×10^6/ml and loaded in a microfluidic device having the channel geometry shown in FIG. 1A, for analysis. Fluorescence was detected using 488 nm excitation, while emission was read at 525 nm and 680 nm.

Assay [2] relates to U937 cells. The experiment in a line: Annexin-V assay for apoptosis in microfluidic device. The conditions noted are these: U937 cells treated to induce apoptosis; FIG. 7, untreated control FIG. 6. Here is the method: In an Annexin-V assay, change in the outer membrane of apoptotic cells is detected. A membrane component, phosphatidylserine (PS) is translocated to the outer layer. Annexin-V binds to PS and is conjugated to biotin to allow secondary reactions to fluorescently labeled Streptavidin for detection. U937 cells were treated with Campthotecin to induce apoptosis. The cells were harvested and washed in phosphate buffered saline (PBS). Cells were incubated with Annexin-V-Biotin (Boehringer Mannheim) in HEPES buffer, and then incubated with 5 μg streptavidin-Cy5 (Amersham) and […] of Calcein-AM dye in HEPES buffer. The HEPES buffer solution contained 10 mM HEPES, pH 7.4; 140 mM NaCl; and a 5 mM CaCl2. The cells were washed and resuspended in HEPES buffer with 8.5% sucrose and loaded in a microfluidic device for analysis. Fluorescence was detected using excitation at 488 nm and 635 nm, and emission was read at 525 nm and 682 nm.

The next assay relates to HL60 cells. The assay is described as above. The conditions noted are these: HL60 cells treated for four hours; FIG. 12, untreated control FIG. 13.

Turning to `CC[C@@]1(O)C(=O)OCc2c1cc1n(c2=O)Cc2cc3ccccc3nc2-1` [Campthotecin], in the assay on HL-60 cells, the “apoptotic cells labeled at DNA damage points vs total cell count” value was “almost all cells had sustained apoptotic DNA damage”. The “apoptotic cells (fluorescein end labeled nucleic acid peaks vs SYTO-62 cell peaks)” value with U937 cells [1] was “corresponding peaks are seen on both the lower and upper lines, indicating the presence of apoptotic cells”. Besides, the “apoptotic cells (Annexin-V-Cy5 peaks vs Calcein live cell count)” value in the assay with U937 cells [2] was “much greater number of peaks representing apoptotic cells”. Also, the “apoptotic cells (Annexin-V-Cy5 labeling vs Calcein live cell count)” value in the assay on HL60 cells is recorded as “almost all cells are apoptotic”.
